According to PubChem BioAssay (NCI):
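Compound exposure: 48 hours, 5 concentrations, 96-well plates. GI50 = concentration required for 50% inhibition of growth. TGI denotes the concentration required for complete inhibition of growth.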

Key:
Test in all cases: DTP human tumour cell line panel, 48 h
[1] = test system: CAKI-1 renal
[2] = test system: TK-10 renal
[3] = test system: 786-0 renal
[4] = test system: UACC-257 melanoma
[5] = test system: SK-OV-3 ovarian
[6] = test system: HOP-62 NSCLC
[7] = test system: NCI-H23 lung
[8] = test system: SN12C renal
[9] = test system: MOLT-4 leukemia
[10] = test system: HCT-116 colon
[11] = test system: HL-60(TB) leukemia

| Compound | TGI [1] [µM] | TGI [2] [µM] | TGI [3] [µM] | TGI [4] [µM] | TGI [5] [µM] | TGI [6] [µM] | TGI [7] [µM] | TGI [8] [µM] | TGI [9] [µM] | TGI [10] [µM] | TGI [11] [µM] | GI50 [2] [µM] | GI50 [4] [µM] | GI50 [5] [µM] | GI50 [6] [µM] | GI50 [7] [µM] | GI50 [8] [µM] | GI50 [10] [µM] | GI50 [9] [µM] | GI50 [11] [µM] |
| --- | --- | --- | --- | --- | --- | --- | --- | --- | --- | --- | --- | --- | --- | --- | --- | --- | --- | --- | --- | --- |
| CCOc1cc2c(OCc3ccccc3)cc3c4cc(OC)c(OC)cc4c[n+](C)c3c2cc1OC | > 69.4 | > 62.6 | 26.6 | 4.95 | 19.4 | 19.6 | 9.1 | > 100 | > 20.3 | – | – | – | – | – | – | – | – | – | – | – |
| COC(=O)C1=C(C)NC2=C(C(=O)c3ccccc32)C1c1cn(-c2ccccc2)nc1-c1ccccc1 (stereo unspecified) | > 100 | > 100 | > 100 | > 100 | > 100 | > 100 | > 100 | > 100 | 44.6 | > 100 | > 100 | – | – | – | – | – | – | – | – | – |
| COc1ccc(C2COc3cc(OC(C)=O)c(OC(C)=O)cc3C2)cc1 (stereo unspecified) | 51.1 | – | – | 46.5 | 82.3 | 67.4 | 63.1 | 32.9 | 29.1 | 47.3 | 7.32 | – | – | – | – | – | – | – | – | – |
| COc1cc(/C=C2\C[C@H]3[C@@H]4CCc5cc(O)ccc5[C@H]4CC[C@]3(C)C2=O)cc(OC)c1OC | 26.6 | 25.1 | 57.7 | 34.1 | 48.3 | 27.9 | 28.5 | 39.5 | 23.1 | 28.6 | – | – | – | – | – | – | – | – | – | – |
| Cc1cc(C)nc(NC(=O)c2ccc(Br)s2)c1 | > 100 | > 100 | > 100 | > 100 | > 100 | > 100 | > 100 | > 100 | > 100 | > 100 | – | – | – | – | – | – | – | – | – | – |
| CCOC(=O)C1=C(C)N(Cc2ccc(Cl)cc2Cl)C2(O)C=CC(=O)C3C(=O)N(c4ccccc4)C(=O)C132 (stereo unspecified) | 9.36 | 8.09 | > 100 | 5.81 | – | 29.5 | 3.53 | 4.93 | 4.93 | > 100 | 6.67 | – | – | – | – | – | – | – | – | – |
| CN(C)CCCNC(=O)c1cc2[nH]c3c(cnc4ccc([N+](=O)[O-])cc43)c(=O)c2n1C | – | 28.2 | – | 39.7 | 37.9 | 30.9 | 44.1 | 35.4 | 33.9 | 20.1 | 34.4 | 14.3 | 21.2 | 17.3 | 17.2 | 20.5 | 20.8 | 6.8 | 13.5 | 12.2 |
| Nc1ccc(-c2nc3cc(F)ccc3s2)cc1Cl | > 100 | 0.176 | > 100 | > 100 | 52.6 | 46.8 | – | > 71.8 | > 100 | > 100 | > 100 | – | – | – | – | – | – | – | – | – |
| CN(CC(=O)O)c1ncc2c(n1)-c1ccccc1SC2 | > 100 | > 100 | > 100 | > 100 | – | – | > 100 | > 100 | > 100 | > 100 | > 100 | – | – | – | – | – | – | – | – | – |
| CCCCCCCCCC1(N=[N+]=[N-])C(=O)c2ccccc2N(C)C1=O (stereo unspecified) | > 100 | > 100 | > 100 | > 100 | > 100 | > 100 | 97.4 | 57.8 | – | 75.2 | > 100 | – | – | – | – | – | – | – | – | – |
| O=C1C(Cl)N(c2ccc(Cl)cc2)C1c1c[nH]c2ccccc12 (stereo unspecified) | – | 34.8 | – | 31.6 | – | 33.7 | 62.8 | 36 | 70 | 28.2 | 44.5 | – | – | – | – | – | – | – | – | – |
| COc1cc(C(=O)n2c3ccc(Br)cc3c3nc4ccccc4nc32)cc(OC)c1OC | > 100 | > 100 | > 100 | > 100 | – | > 100 | > 100 | > 100 | > 100 | > 100 | > 100 | – | – | – | – | – | – | – | – | – |
| CC1(C)CC(=O)c2[nH]c3ccccc3c2CC(=O)NCCc2cn1cn2 | > 100 | > 100 | > 100 | > 100 | > 100 | – | > 100 | > 100 | > 100 | > 100 | – | – | – | – | – | – | – | – | – | – |
| CC(C)(C)[Si](C)(C)OCC1OC(n2ccc(N)nc2=O)C(O[Si](C)(C)C(C)(C)C)C1O[Si](C)(C)C(C)(C)C (stereo unspecified) | – | – | 3.01 | 10.4 | 6.36 | 4.85 | – | 10.2 | – | 11.6 | – | – | – | – | – | – | – | – | – | – |
| O=C1NC(=O)C(c2c[nH]c3ccccc23)=C1c1cnc[nH]1 | > 100 | > 100 | > 100 | > 100 | > 100 | > 100 | – | > 100 | > 100 | > 100 | > 100 | – | – | – | – | – | – | – | – | – |
| CC(C)(Cl)C(Br)CCC(C)(Cl)C(Br)CBr (stereo unspecified) | – | 99.6 | 61.9 | 51 | > 100 | 57.3 | 55.6 | 54.2 | > 100 | 47.5 | 35.4 | – | – | – | – | – | – | – | – | – |
| COC(=O)c1cc2c3c(ccc2[nH]1)N(C(=O)c1cc2cc(OC)c(OC)c(OC)c2[nH]1)CC3CCl (stereo unspecified) | > 100 | > 100 | > 52.6 | > 100 | > 100 | > 72 | > 100 | – | > 100 | > 100 | – | – | – | – | – | – | – | – | – | – |
| CCCC[C@@H]1CCN2C[C@@H](O)[C@@H](O)[C@@H]2[C@H]1O | > 100 | – | > 100 | > 100 | > 100 | – | > 100 | > 100 | > 100 | > 100 | > 100 | – | – | – | – | – | – | – | – | – |
| O=C(O)c1ccc(N=C(C(=Nc2ccc(C(=O)O)cc2)c2ccccc2)c2ccccc2)cc1 | – | > 100 | > 100 | > 100 | > 100 | > 100 | > 100 | > 100 | > 100 | > 100 | – | – | – | – | – | – | – | – | – | – |
| Oc1c(C2=NNC(c3ccc(Cl)cc3Cl)C2)ccc2ccccc12 (stereo unspecified) | > 100 | > 100 | > 100 | > 100 | > 100 | > 100 | > 100 | > 100 | 31.4 | > 100 | – | – | – | – | – | – | – | – | – | – |
| OCCCCCCCCCCCOc1ccc(C2OCC3(CO2)COC(c2ccc(OCCCCCCCCCCCO)cc2)OC3)cc1 (stereo unspecified) | > 50 | > 50 | > 50 | > 50 | > 50 | > 50 | > 50 | > 50 | > 50 | > 50 | – | – | – | – | – | – | – | – | – | – |
